Measured values: ChEMBL document CHEMBL2010679, “Development of a new class of aromatase inhibitors: design, synthesis and inhibitory activity of 3-phenylchroman-4-one (isoflavanone) derivatives” (Bioorg Med Chem, 2012)

Legend:
Aromatase [1] = target: T1, Aromatase (Homo sapiens, UniProt P11511)
T1 sequence (P11511 whole entry): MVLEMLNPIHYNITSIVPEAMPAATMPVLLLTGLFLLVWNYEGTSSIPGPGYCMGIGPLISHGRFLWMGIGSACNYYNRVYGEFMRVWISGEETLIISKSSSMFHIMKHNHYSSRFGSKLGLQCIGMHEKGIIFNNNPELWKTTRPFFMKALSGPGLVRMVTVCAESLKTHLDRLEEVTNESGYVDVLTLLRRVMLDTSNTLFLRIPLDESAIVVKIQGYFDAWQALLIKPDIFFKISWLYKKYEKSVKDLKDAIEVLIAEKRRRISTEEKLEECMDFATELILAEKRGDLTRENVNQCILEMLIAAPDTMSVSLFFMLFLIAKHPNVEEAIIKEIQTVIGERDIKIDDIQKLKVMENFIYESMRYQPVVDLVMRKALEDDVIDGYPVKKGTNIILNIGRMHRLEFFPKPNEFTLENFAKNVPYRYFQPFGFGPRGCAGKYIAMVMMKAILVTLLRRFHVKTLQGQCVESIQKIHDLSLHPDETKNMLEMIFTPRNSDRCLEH

Aromatase [2] = target: T1, Aromatase; assay: Inhibition of human recombinant aromatase expressed in baculovirus/insect cells using 7-methoxy-trifluoromethylcoumarin as substrate after 30 mins by fluorescence-based spectrophotometry

O=C1c2ccccc2OC(O)C1c1ccccc1 (centres undefined)
IC50 (Aromatase [1]): 170 µM

O=C1c2ccccc2OCC1c1ccc(O)cc1 (centres undefined)
IC50 (Aromatase [1]): 160 µM

O=C1c2ccccc2OCC1c1ccc(O)c(O)c1 (centres undefined)
IC50 (Aromatase [1]): ≥ 200 µM

COc1ccc2c(c1)OCC(c1ccccc1)C2=O (racemic)
IC50 (Aromatase [2]; read-out: IC50): 41 µM

Cc1ccc2c(c1)C(=O)C(c1ccccc1)CO2 (racemic)
IC50 (Aromatase [2]; read-out: IC50): 44 µM

Cc1ccc2c(c1)OCC(c1ccccc1)C2=O (racemic)
IC50 (Aromatase [2]; read-out: IC50): 18 µM

Cc1cccc(C2COc3ccccc3C2=O)c1 (racemic)
IC50 (Aromatase [2]; read-out: IC50): 20 µM

Cc1ccc(C2COc3ccccc3C2=O)cc1 (racemic)
IC50 (Aromatase [2]; read-out: IC50): 41 µM

O=C1c2c(ccc3ccccc23)OCC1c1ccccc1 (racemic)
IC50 (Aromatase [2]; read-out: IC50): 20 µM

O=C1c2ccccc2OCC1c1ccc(Oc2ccccc2)cc1 (racemic)
IC50 (Aromatase [2]; read-out: IC50): 2.4 µM

O=C1c2ccccc2OCC1c1ccc(-c2ccccc2)cc1 (racemic)
IC50 (Aromatase [2]): Not Active

O=C1c2ccccc2OCC1c1cc2ccccc2c2ccccc12 (racemic)
IC50 (Aromatase [2]): Not Active

COc1ccc2c(c1)C(=O)C(c1ccccc1)CO2 (racemic)
IC50 (Aromatase [2]; read-out: IC50): 0.26 µM

COc1ccccc1C1COc2ccccc2C1=O (racemic)
IC50 (Aromatase [2]; read-out: IC50): 97 µM

COc1cccc(C2COc3ccccc3C2=O)c1 (racemic)
IC50 (Aromatase [2]; read-out: IC50): 99 µM

COc1ccc(C2COc3ccccc3C2=O)cc1 (racemic)
IC50 (Aromatase [2]; read-out: IC50): 24 µM

COc1cc(OC)cc(C2COc3ccccc3C2=O)c1 (racemic)
IC50 (Aromatase [2]; read-out: IC50): 11 µM

O=C1c2ccccc2OCC1c1ccsc1 (racemic)
IC50 (Aromatase [2]; read-out: IC50): 30 µM

O=C1c2ccccc2OCC1c1cccnc1 (racemic)
IC50 (Aromatase [2]; read-out: IC50): 5.8 µM

O=C1c2cc(F)ccc2OCC1c1ccccc1 (racemic)
IC50 (Aromatase [2]; read-out: IC50): 32 µM

O=C1c2cc(Cl)ccc2OCC1c1ccccc1 (racemic)
IC50 (Aromatase [2]; read-out: IC50): 5.1 µM

O=C1c2cc(Br)ccc2OCC1c1ccccc1 (racemic)
IC50 (Aromatase [2]; read-out: IC50): 29 µM

CC(C)(C)c1ccc2c(c1)C(=O)C(c1ccccc1)CO2 (racemic)
IC50 (Aromatase [2]; read-out: IC50): 61 µM

O=C1c2ccccc2OCC1c1ccccc1 (racemic) [ISOFLAVANONE]
IC50 (Aromatase [2]; read-out: IC50): 29 µM
